Columns and labels:
Cyperus difformis = test: Test Example 3: herbicidal effect by application to foliage (Wagner pot, water depth 0.1-0.5 cm); type: in vivo; conditions: Nineteenth Table; application to foliage; application herbicide amount 320 g/ha
Procedure, shortened: (§1)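 Scores (0–5) reflect herbicidal ratio three weeks after a foliar spray: 0 is 5% or less, 5 is 90% or more. Plants had grown 14 days in alluvial soil pots in a 25–30 °C greenhouse before treatment with water-diluted emulsion at a set g/ha.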

[1] = tested on: Echinochloa crus-galli var. crus-galli; test: as above; type: in vivo; conditions: Nineteenth Table; application to foliage; application herbicide amount 320 g/ha
Procedure, shortened: as §1

Leptochloa chinensis = test: as above; type: in vivo; conditions: Nineteenth Table; application to foliage; application herbicide amount 320 g/ha
Procedure, shortened: as §1

[2] = tested on: directly sowed Oryza sativa; test: Test Example 3: effect on crop by application to foliage (Wagner pot, water depth 0.1-0.5 cm); type: in vivo; conditions: Nineteenth Table; application to foliage; application herbicide amount 320 g/ha
Procedure, shortened: as §1

Abutilon theophrasti = test: Test Example 4: herbicidal effect by application to foliage (diluvial soil, plastic box); type: in vivo; conditions: Application herbicide amount 320 g/ha; foliage application
Procedure, shortened: (§2)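 Greenhouse plants (25° C. to 30° C., 14 d, diluvial soil) receive a foliar spray of water-diluted emulsifiable formulation at defined g/ha. Grading after 3 weeks uses a six-step herbicidal-ratio scale, with 4 covering 70% to <90% and 1 covering 5% to <20%.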

Alopecurus myosuroides = test: as above; type: in vivo; conditions: Application herbicide amount 320 g/ha; foliage application
Procedure, shortened: as §2

Amaranthus retroflexus = test: as above; type: in vivo; conditions: Application herbicide amount 320 g/ha; foliage application
Procedure, shortened: as §2

Apera spica-venti. = test: as above; type: in vivo; conditions: Application herbicide amount 320 g/ha; foliage application
Procedure, shortened: as §2

Avena fatua = test: as above; type: in vivo; conditions: Application herbicide amount 320 g/ha; foliage application
Procedure, shortened: as §2

Chenopodium album = test: as above; type: in vivo; conditions: Application herbicide amount 320 g/ha; foliage application
Procedure, shortened: as §2

Digitaria ciliaris = test: as above; type: in vivo; conditions: Application herbicide amount 320 g/ha; foliage application
Procedure, shortened: as §2

[3] = tested on: Echinochloa crus-galli var. crus-galli; test: as above; type: in vivo; conditions: Application herbicide amount 320 g/ha; foliage application
Procedure, shortened: as §2

Galium spurium = test: as above; type: in vivo; conditions: Application herbicide amount 320 g/ha; foliage application
Procedure, shortened: as §2

Lolium multiflorum Lam. = test: as above; type: in vivo; conditions: Application herbicide amount 320 g/ha; foliage application
Procedure, shortened: as §2

Setaria viridis = test: as above; type: in vivo; conditions: Application herbicide amount 320 g/ha; foliage application
Procedure, shortened: as §2

Stellaria media = test: as above; type: in vivo; conditions: Application herbicide amount 320 g/ha; foliage application
Procedure, shortened: as §2

Veronica persica = test: as above; type: in vivo; conditions: Application herbicide amount 320 g/ha; foliage application
Procedure, shortened: as §2

[4] = tested on: Beta vulgaris ssp. vulgaris; test: Test Example 4: effect on crop by application to foliage (diluvial soil, plastic box); type: in vivo; conditions: Application herbicide amount 320 g/ha; foliage application
Procedure, shortened: as §2

Brassica campestris L. = test: as above; type: in vivo; conditions: Application herbicide amount 320 g/ha; foliage application
Procedure, shortened: as §2

Glycine max = test: as above; type: in vivo; conditions: Application herbicide amount 320 g/ha; foliage application
Procedure, shortened: as §2

Triticum aestivum = test: as above; type: in vivo; conditions: Application herbicide amount 320 g/ha; foliage application
Procedure, shortened: as §2

Zea mays = test: as above; type: in vivo; conditions: Application herbicide amount 320 g/ha; foliage application
Procedure, shortened: as §2

[5] = tested on: directly sowed Oryza sativa; test: as above; type: in vivo; conditions: Application herbicide amount 320 g/ha; foliage application
Procedure, shortened: as §2

Cc1nnc(NC(=O)c2ccc(C(F)(F)F)n3c(SCC#N)nnc23)o1 [1-117]
E (herbicidal effect grade) (Cyperus difformis): 2 (Herbicidal ratio of 20% or more and less than 40%)
H (herbicidal effect grade) [1]: 4 (Herbicidal ratio of 70% or more and less than 90%)
D (herbicidal effect grade) (Leptochloa chinensis): 4 (Herbicidal ratio of 70% or more and less than 90%)
b (effect on crop grade) [2]: 0 (Herbicidal ratio of 5% or less (almost no effect))
M (Abutilon theophrasti) herbicidal effect grade (Abutilon theophrasti): 3 (Herbicidal ratio of 40% or more and less than 70%)
J (Alopecurus myosuroides) herbicidal effect grade (Alopecurus myosuroides): 0 (Herbicidal ratio of 5% or less (almost no effect))
N (Amaranthus retroflexus) herbicidal effect grade (Amaranthus retroflexus): 3 (Herbicidal ratio of 40% or more and less than 70%)
L (Apera spica-venti.) herbicidal effect grade (Apera spica-venti.): 0 (Herbicidal ratio of 5% or less (almost no effect))
I (Avena fatua) herbicidal effect grade (Avena fatua): 0 (Herbicidal ratio of 5% or less (almost no effect))
O (Chenopodium album) herbicidal effect grade (Chenopodium album): 5 (Herbicidal ratio of 90% or more (almost completely withered))
F (Digitaria ciliaris) herbicidal effect grade (Digitaria ciliaris): 1 (Herbicidal ratio of 5% or more and less than 20%)
H (Echinochloa crus-galli var. crus-galli) herbicidal effect grade [3]: 4 (Herbicidal ratio of 70% or more and less than 90%)
Q (Galium spurium) herbicidal effect grade (Galium spurium): 1 (Herbicidal ratio of 5% or more and less than 20%)
K (Lolium multiflorum Lam.) herbicidal effect grade (Lolium multiflorum Lam.): 0 (Herbicidal ratio of 5% or less (almost no effect))
G (Setaria viridis) herbicidal effect grade (Setaria viridis): 1 (Herbicidal ratio of 5% or more and less than 20%)
P (Stellaria media) herbicidal effect grade (Stellaria media): 3 (Herbicidal ratio of 40% or more and less than 70%)
R (Veronica persica) herbicidal effect grade (Veronica persica): 3 (Herbicidal ratio of 40% or more and less than 70%)
f (Beta vulgaris ssp. vulgaris) effect on crop grade [4]: 3 (Herbicidal ratio of 40% or more and less than 70%)
g (Brassica campestris L.) effect on crop grade (Brassica campestris L.): 1 (Herbicidal ratio of 5% or more and less than 20%)
d (Glycine max) effect on crop grade (Glycine max): 3 (Herbicidal ratio of 40% or more and less than 70%)
e (Triticum aestivum) effect on crop grade (Triticum aestivum): 0 (Herbicidal ratio of 5% or less (almost no effect))
c (Zea mays) effect on crop grade (Zea mays): 0 (Herbicidal ratio of 5% or less (almost no effect))
b (directly sowed Oryza sativa) effect on crop grade [5]: 0 (Herbicidal ratio of 5% or less (almost no effect))

CC(C)c1nnc2c(C(=O)Nc3nnnn3C)ccc(Cl)n12 [2-004, 5-Chloro-3-isopropyl-N-(1-methyl-1H-tetrazol-5-yl)-[1,2,4]triazolo[4,3-a]pyridine-8-carboxamide]
melting point: 189 to 190 °C

Reference: US9708314B2, “Heterocyclic amide compound” (NISSAN CHEMICAL INDUSTRIES, LTD., priority 2013, dated 2017)
